Several values for one entry are separate records, joined by “and”; a condition that tells them apart may be missing. Equal values may be shown once.
Assay: xn = mol fraction of the nth substance listed

O=c1oc2ccccc2c(O)c1C(c1ccccc1)c1c(O)c2ccccc2oc1=O + CS(C)=O
viscosity [mPa·s], 100 kPa
Details	x1 = 0.0007822	x1 = 0.001562	x1 = 0.002337	x1 = 0.003116	x1 = 0.003894	x1 = 0.004664
293.15 K	2.346	2.469	2.592	2.715	2.839	2.963
298.15 K	2.068	2.179	2.286	2.394	2.502	2.611
303.15 K	1.883	1.966	2.063	2.161	2.256	2.352
308.15 K	1.684	1.755	1.825	1.909	1.992	2.076
313.15 K	1.519	1.578	1.638	1.713	1.789	1.862

CC(=O)c1ccc(Cl)cc1 + CNC(C)=O
308.15 K, 101 kPa
Details	viscosity [mPa·s]
x1 = 0.0644	3.273
x1 = 0.1311	3.223
x1 = 0.2036	3.141
x1 = 0.2825	3.035
x1 = 0.3696	2.906
x1 = 0.4664	2.765
x1 = 0.5774	2.604
x1 = 0.7003	2.452
x1 = 0.8405	2.331

CC1CCCC(O)C1 (stereo not drawn) + c1ccccc1
293.15 K, 101 kPa
Details	viscosity
x2 = 0.3	4.2 mPa·s
x2 = 0.5	2.1 mPa·s
x2 = 0.6	1.6 mPa·s
x2 = 0.7	1.5 mPa·s
x2 = 0.8	1.2 mPa·s and 1.1 mPa·s

C=Cc1ccccc1 + CCO
viscosity [mPa·s], 101.33 kPa
Details	x1 = 0.0997	x1 = 0.1994	x1 = 0.3013	x1 = 0.3987	x1 = 0.5004	x1 = 0.6011	x1 = 0.7001	x1 = 0.7976	x1 = 0.8989
298.15 K	1.01	0.932	0.849	0.798	0.764	0.747	0.737	0.731	0.72
303.15 K	0.93	0.861	0.777	0.735	0.711	0.701	0.693	0.688	0.679
308.15 K	0.848	0.786	0.711	0.681	0.661	0.652	0.645	0.64	0.634

O=C([O-])CC(O)(CC(=O)[O-])C(=O)[O-].[NH4+].[NH4+].[NH4+] + O
viscosity, 101 kPa
Details	298.15 K	308.15 K	318.15 K
x1 = 0.004	0.9957 mPa·s	0.814 mPa·s	0.685 mPa·s
x1 = 0.007	1.13 mPa·s	0.923 mPa·s	0.7741 mPa·s
x1 = 0.01	1.283 mPa·s and 1.49 mPa·s	1.048 mPa·s and 1.211 mPa·s	0.8784 mPa·s and 1.01 mPa·s

CCCCCCCCO + CCCO
viscosity [mPa·s], 101 kPa
Details	298.15 K	308.15 K	318.15 K
x2 = 0.05	7.025	4.92	3.71
x2 = 0.1	6.694	4.637	3.555
x2 = 0.15	6.37	4.394	3.406
x2 = 0.2	6.052	4.183	3.261
x2 = 0.25	5.742	3.995	3.12
x2 = 0.3	5.438	3.824	2.982
x2 = 0.35	5.141	3.663	2.847
x2 = 0.4	4.851	3.507	2.713
x2 = 0.45	4.568	3.353	2.581
x2 = 0.5	4.291	3.197	2.45
x2 = 0.55	4.021	3.036	2.32
x2 = 0.6	3.758	2.869	2.191
x2 = 0.65	3.501	2.696	2.063
x2 = 0.7	3.249	2.517	1.936
x2 = 0.75	3.003	2.333	1.811
x2 = 0.8	2.762	2.147	1.687
x2 = 0.85	2.526	1.962	1.565
x2 = 0.9	2.294	1.782	1.445
x2 = 0.95	2.065	1.612	1.329

CCCCCCCCO + CCCCCCC
viscosity [mPa·s], 101.33 kPa
Details	298.15 K	308.15 K
x1 = 0.0448	0.4411	0.3932
x1 = 0.0922	0.4999	0.4375
x1 = 0.1826	0.6375	0.5457
x1 = 0.278	0.8198	0.6942
x1 = 0.3705	1.072	0.8964
x1 = 0.469	1.464	1.149
x1 = 0.5664	1.902	1.594
x1 = 0.6697	2.7	2.213
x1 = 0.7784	3.885	3.021
x1 = 0.8336	4.545	3.466
x1 = 0.8844	5.124	3.885
x1 = 0.9381	6.024	4.399

CCC(C)(C)OC + C1CCCC1
viscosity [mPa·s], 100 kPa
Details	x1 = 0.0512	x1 = 0.1014	x1 = 0.2107	x1 = 0.3001	x1 = 0.4033	x1 = 0.5001	x1 = 0.6006	x1 = 0.7352	x1 = 0.8928	x1 = 0.9498
293.15 K	0.429	0.429	0.431	0.432	0.434	0.435	0.436	0.437	0.439	0.439
303.15 K	0.386	0.388	0.392	0.395	0.398	0.401	0.404	0.408	0.413	0.414
313.15 K	0.349	0.35	0.353	0.355	0.357	0.359	0.361	0.364	0.367	0.368

BrC(Br)Br + COCCO
viscosity [mPa·s], 101.3 kPa
Details	x1 = 0.097	x1 = 0.198	x1 = 0.297	x1 = 0.401	x1 = 0.499	x1 = 0.6	x1 = 0.697	x1 = 0.798	x1 = 0.9
298.15 K	1.922	2.097	2.22	2.27	2.245	2.183	2.094	2.003	1.932
303.15 K	1.719	1.872	1.984	2.03	2.014	1.972	1.909	1.842	1.794
308.15 K	1.549	1.68	1.774	1.825	1.817	1.792	1.748	1.702	1.676
